Consider 20 compounds from ChEMBL document CHEMBL4402534, “Dihydroorotate dehydrogenase inhibitors in anti-infective drug research” (Eur J Med Chem, 2019).

Converted amounts (≈) assume the structure as drawn. Some results are limits rather than exact numbers.

Assay [1] deals with T1, Dihydroorotate dehydrogenase (quinone), mitochondrial (Homo sapiens, UniProt Q02127). The assay can be described thus: Inhibition of DHODH (unknown origin).
Assay [2] is described as follows: Inhibition of Plasmodium falciparum DHODH.
Assay [3] has as its target T1, Dihydroorotate dehydrogenase (quinone), mitochondrial. The assay can be described thus: Inhibition of human DHODH.
Assay [4] deals with Dengue virus. Description: Antiviral activity against Dengue virus assessed as reduction in virus replication. The class given is functional, organism-based.
Assay [5] in a line: Inhibition of Aspergillus fumigatus DHODH.
Assay [6] in a line: Inhibition of Helicobacter pylori DHODH.
In a further assay the test system is Helicobacter pylori. Description: Antibacterial activity against Helicobacter pylori by whole cell-based assay. The class given is functional.
Assay [7] in a line: Inhibition of Babesia bovis DHODH.
The nature of assay [8]: Selectivity index, ratio of IC50 for human DHODH to IC50 for Schistosoma mansoni DHODH.
The next assay has as its system Yellow fever virus. Description: Antiviral activity against Yellow fever virus infected in human A549 cells assessed as reduction in virus replication. The class given is functional, organism-based.
A further assay relates to West Nile virus. The assay can be described thus: Antiviral activity against West Nile virus infected in human A549 cells assessed as reduction in virus replication. The class given is functional, organism-based.
Assay [9] concerns Dengue virus. The assay can be described thus: Antiviral activity against Dengue virus infected in human A549 cells assessed as reduction in virus replication. The class given is functional, organism-based.
Assay [10] has as its system Western equine encephalitis virus. The assay can be described thus: Antiviral activity against Western equine encephalomyelitis virus infected in human A549 cells assessed as reduction in virus replication. The class given is functional, organism-based.
Assay [11] has as its system Vesicular stomatitis virus. The assay can be described thus: Antiviral activity against Vesicular stomatitis virus infected in human A549 cells assessed as reduction in virus replication. The class given is functional, organism-based.
Assay [12] is described as follows: Inhibition of Escherichia coli DHODH.
Assay [13] in a line: Inhibition of Enterococcus faecalis DHODH.
The next assay relates to Cytomegalovirus. The assay can be described thus: Antiviral activity against Cytomegalovirus. The settings on record: Human betaherpesvirus 5. The class given is functional, organism-based.
The nature of assay [14]: Antiviral activity against Human herpesvirus 6 type A. The class given is functional, Human herpesvirus 6A.
Another assay concerns Human alphaherpesvirus 3. Description: Antiviral activity against Varicella zoster virus. The class given is functional, organism-based.
The next assay has as its system Human alphaherpesvirus 1. Description: Antiviral activity against Herpes simplex viruses type 1. The class given is functional, organism-based.
In another assay the test system is Human alphaherpesvirus 2. Description: Antiviral activity against Herpes simplex viruses type 2. The class given is functional, organism-based.

T1 sequence (Q02127 whole entry): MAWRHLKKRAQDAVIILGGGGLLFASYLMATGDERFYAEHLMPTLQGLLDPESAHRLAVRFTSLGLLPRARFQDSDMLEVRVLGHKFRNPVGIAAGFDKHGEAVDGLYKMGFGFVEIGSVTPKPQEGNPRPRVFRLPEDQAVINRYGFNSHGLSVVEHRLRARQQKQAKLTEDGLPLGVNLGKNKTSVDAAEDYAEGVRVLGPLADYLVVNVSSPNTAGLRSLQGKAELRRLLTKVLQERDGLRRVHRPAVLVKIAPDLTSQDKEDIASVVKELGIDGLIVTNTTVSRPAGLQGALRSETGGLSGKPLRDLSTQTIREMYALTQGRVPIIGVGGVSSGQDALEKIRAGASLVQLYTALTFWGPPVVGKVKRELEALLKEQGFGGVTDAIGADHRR

Turning to `Cc1[nH]c2ccc(-c3nnc(SCC(=O)N4CCCC4)o3)cc2c1C`, the half-maximal inhibitory concentration (IC50) – broadly, the concentration needed to halve the response being measured – in assay [1] was 1130 nM.

In turn, `Cc1nc2c(OC(F)F)cccc2n1-c1ccc(C(=O)NC2CC2)s1` showed a 50% inhibitory concentration (IC50) in [2] of 220 nM.

`Cc1nc2c(C#N)cccc2n1-c1ccc(C(=O)NC2CC2)s1` gave a concentration for half-maximal inhibition (IC50) in assay [2] of 50 nM.

As for `Cc1cc(Nc2ccc(S(F)(F)(F)(F)F)cc2)n2ncnc2n1`, in [2], the IC50 came out at 130 nM.

Consider `O=C(N[C@@H]1CCCc2c1[nH]c1ccc(Cl)cc21)c1ccccn1`, for which, in assay [3], affinity was put at a Ki of 203 nM. Also, in the assay with Dengue virus [4], the half-maximal inhibitory concentration (IC50) amounted to 13.3 nM.

As to `Cc1cc(-c2ccccc2)c(C(=O)C(=O)Nc2ccc(N3CCN(c4ncc(F)cn4)CC3)cc2)n1C` [OLOROFIM], the values for the half-inhibitory concentration (IC50) in assay [3] and in assay [5] were over 100000 nM and 44 nM, respectively.

With `O=C(NCc1cccnc1)c1cc(C(=O)Nc2ccccc2)n(-c2ccc(Cl)cc2)n1`, in assay [6], the Ki (in general, a measure of affinity in units of concentration, obtained from inhibition or displacement) was 4 nM. Besides, in the assay with Helicobacter pylori, the MIC – broadly, the least concentration at which growth counts as inhibited – is 0.25 µg/mL (≈ 0.579 µM).

Consider `O=C1C(O)=C([C@H]2CC[C@H](c3ccc(Cl)cc3)CC2)C(=O)c2ccccc21` [ATOVAQUONE], for which the values for the 50% inhibitory concentration (IC50) in [3] and in assay [7] were 2600 nM and 2.38 nM, respectively. The Ratio IC50 in assay [8] came out at 6.

Consider `COC(=O)c1c(-c2c(Cl)cccc2Cl)noc1-c1cnn(-c2cccc(Cl)c2)c1C(F)(F)F`, for which the EC50 (in the assay on Yellow fever virus; with West Nile virus; in the assay with Dengue virus [9]; in [10]; in [11]) was 2.4 nM throughout. In assay [3], this compound came in with an IC50 of 103 nM.

On to `O=c1sn(-c2ccccc2)c(=O)n1-c1ccc(F)cc1`, for which the half-inhibitory concentration (IC50) in assay [3] is over 100000 nM; in assay [12], 840 nM; in [13], 75 nM.

Take `O=C(NCc1ccccc1)c1cc(C(=O)Nc2ccccc2)n(-c2ccc(Cl)cc2)n1`: in assay [6], the Ki is 4 nM. The same compound had an MIC in the assay with Helicobacter pylori of 0.125 µg/mL (≈ 0.29 µM).

In the case of `O=C(Nc1c(F)c(F)c(-c2cccc(OC(F)(F)F)c2)c(F)c1F)c1ccsc1C(=O)O` [KIO-100], the IC50 was 1500 nM with Cytomegalovirus; 1.55 nM in assay [14]; 3.55 nM with Human alphaherpesvirus 3; over 10000 nM in the assay with Human alphaherpesvirus 1; over 10000 nM in the assay on Human alphaherpesvirus 2.

In [2], `Cc1nc2cc(OC(F)(F)F)ccc2n1-c1ccc(C(=O)NC2CC2)s1` registered an IC50 of 220 nM.

For the compound `Cc1c(-c2ccc(-c3ccccc3F)cc2)nc2ccc(F)cc2c1C(=O)O` [BREQUINAR], the EC50 (with Yellow fever virus; in the assay with West Nile virus; with Dengue virus [9]; in [10]; in assay [11]) was 78 nM in each case. In [7], this compound came in with a half-maximal inhibitory concentration (IC50) of 52400 nM.

`CCCCCCCCc1[nH]c2ccccc2c(=O)c1C` gave an IC50 in [6] of 4550 nM.

In assay [7], `Cc1oncc1C(=O)Nc1ccc(C(F)(F)F)cc1` [LEFLUNOMIDE] yielded a 50% inhibitory concentration (IC50) of 52400 nM.

With `C[C@H](c1ccc(-c2ccccc2)cc1)N(C)C(=O)CSc1nnnn1-c1ccc(O)cc1`, inhibition in [1] was half-maximal at 41000 nM (IC50).

Turning to `COc1ccc(-n2nc(C(=O)NCc3ccccc3)cc2C(=O)Nc2ccc(C(=O)N3CCCC3)cc2)cc1`, the affinity in assay [6] corresponds to a Ki of 26 nM. In the assay on Helicobacter pylori, this compound showed a minimal inhibitory concentration (MIC) of 3 µg/mL (≈ 5.73 µM).

`COc1ccc(-n2nc(C(=O)Nc3ccccc3O)cc2C(=O)Nc2ccc(C(=O)N3CCCC3)cc2)cc1` came in with a Ki in assay [6] of 50 nM.

Take `CSC(=NCn1c(C/C=C(\C)CCC=C(C)C)c(C)c(=O)c2ccccc21)SC`: in assay [6], the half-maximal inhibitory concentration (IC50) was determined as 11100 nM.
